Test results from patent US20200216563A1, “HDAC6 AND PROTEIN AGGREGATION” (Friedrich Miescher Institute for Biomedical Research, priority 2017, published 2020).

Legend:
[1] = system: DDX3X-K118Ac; assay: DDX3X acetylation in HEK293T cells expressing CBP or p300 (immunoprecipitation and immunoblotting); assay type: cell-based, human; conditions: for DDX3X-K118Ac signal after treating the cells with HDAC inhibitors: HEK293T cells transiently expressing CBP, DDX3X-K118Ac-specific antibody
Method: HEK293T cells were transfected with Lipofectamine 2000 (Life Technologies) or FuGENE HD (Promega), and MEF cells were transfected with 4D-Nucleofector™ System (Lonza), following manufacturer's protocol.
Cells were washed by ice-cold PBS and lysed in Triton lysis buffer (50 mM Tris-HCl, pH8.0, 150 mM sodium chloride, 1 mM EDTA, 0.1% TritonX-100 and Complete EDTA-free protease inhibitors (Roche)) for analysis. To detect protein acetylation, 0.2 μM Trichostatin A and 5 mM nicotinamide was added to PBS for wash, and 10 μM Trichostatin A, 10 mM nicotinamide, 50 mM sodium butyrate were added to Triton lysis buffer. To detect protein phosphorylation, Pierce Protease and Phosphatase Inhibitor Mini Tablets (Thermo scientific) were added to Triton lysis buffer instead of Complete EDTA-free protease inhibitors. Five hundred μg protein lysates were incubated with the specific antibody for overnight at 4° C., and immunoprecipitated with Dynabeads ProteinG (invitrogen) for 1 h at 4° C. Samples were boiled for 10 min in SDS-PAGE sample buffer, and separated with 4-12% NuPAGE gels (invitrogen). […] For inhibition of HDACs in cells, concentration of each HDAC inhibitor was as described in {Scholz, 2015 #851}.
(§1) To investigate whether DDX3X-K118Ac is a direct target site of HDAC6, the inventors performed a biochemical assay using purified components. […] Next, they tested the acetylation status of DDX3X in cells. It has been shown that the stoichiometry of acetylation is generally low {Weinert, 2014 #452}, making it difficult to detect. The inventors therefore attempted to enhance the level of acetylation by expressing different HATs. To test which HAT(s) can act on DDX3X, expression vectors for PCAF, CBP, Tip60 or p300 were individually transfected into HEK293T cells and cellular extracts were analyzed by immunoprecipitation and immunoblotting.
Different deacetylases often redundantly target the same lysine acetylation site on a target protein. […] To test whether the DDX3X-K118 deacetylation is specific for HDAC6, the inventors transiently expressed CBP in HEK293T cells and assessed the DDX3X-K118Ac signal after treating the cells with several HDAC inhibitors.

[2] = biological target: T1, Danio rerio HDAC6 CD1-CD2 (a.a.40-831) (Danio rerio, UniProt F8W4B7); assay: In vitro HDAC6 deacetylation assay with DDX3X-K118 acetylated peptide; assay type: biochemical; conditions: 1 μM Trichostatin A, 3 hours, 37° C., HPLC UV 214 nm
T1 construct: Danio rerio HDAC6 CD1-CD2 (a.a.40-831) was expressed in Sf9 insect cells; made in house; host or cells: Sf9 insect cells
T1 sequence (F8W4B7 40-831): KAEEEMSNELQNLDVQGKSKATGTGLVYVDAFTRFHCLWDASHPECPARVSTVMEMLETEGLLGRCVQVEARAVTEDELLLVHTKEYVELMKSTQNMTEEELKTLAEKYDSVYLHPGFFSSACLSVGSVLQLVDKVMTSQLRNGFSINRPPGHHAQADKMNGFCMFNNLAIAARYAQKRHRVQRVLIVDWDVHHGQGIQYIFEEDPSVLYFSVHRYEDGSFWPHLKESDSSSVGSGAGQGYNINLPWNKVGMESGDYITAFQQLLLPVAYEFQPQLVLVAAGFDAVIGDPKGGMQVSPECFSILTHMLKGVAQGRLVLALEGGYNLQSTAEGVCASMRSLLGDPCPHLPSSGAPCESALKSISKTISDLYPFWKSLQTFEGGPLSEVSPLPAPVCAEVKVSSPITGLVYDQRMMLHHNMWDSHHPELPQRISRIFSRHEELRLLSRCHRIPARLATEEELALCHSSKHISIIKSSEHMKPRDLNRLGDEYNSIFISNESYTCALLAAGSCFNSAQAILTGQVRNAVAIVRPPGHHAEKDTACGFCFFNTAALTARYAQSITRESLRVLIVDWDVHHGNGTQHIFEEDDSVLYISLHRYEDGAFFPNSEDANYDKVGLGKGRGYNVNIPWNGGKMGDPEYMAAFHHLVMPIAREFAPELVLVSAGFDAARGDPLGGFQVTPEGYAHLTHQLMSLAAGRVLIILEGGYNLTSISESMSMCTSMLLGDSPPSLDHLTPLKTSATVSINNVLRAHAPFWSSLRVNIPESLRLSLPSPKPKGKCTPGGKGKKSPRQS
From the text: as §1

[3] = system: DDX3X-K118 acetylation; assay: DDX3X-K118 acetylation under arsenite-induced oxidative stress (immunoblotting); assay type: cell-based

Molecule	DDX3X-K118Ac signal after treating the cells with HDAC inhibitors [1]	further results
CCCCOc1ccc(CC(=O)NO)cc1 [Bufexamac]	increased	
CC(/C=C/C(=O)NO)=C\[C@@H](C)C(=O)c1ccc(N(C)C)cc1 [Trichostatin A]		deacetylation of the DDX3X-K118Ac peptide by purified tandem HDAC6 catalytic domains [2]: inhibited
O=C(CCCCCCC(=O)Nc1ccc([C@H]2O[C@@H](CSc3nc(-c4ccccc4)c(-c4ccccc4)o3)C[C@@H](c3ccc(CO)cc3)O2)cc1)NO [Tubacin]	increased	DDX3X-K118 acetylation after arsenite treatment plus HDAC6 inhibitor ([3]; WT cells treated with arsenite and also with Tubacin): further increased; acetylation level of endogenous or overexpressed DDX3X ([1]; HEK293T cells transfected with CBP or p300 (with or without DDX3X construct), treatment of the cells with inhibitor): increased even further
CN1CCc2c(c3ccccc3n2Cc2ccc(C(=O)NO)cc2)C1 [Tubastatin A]	increased	
NC(=O)c1cccnc1 [nicotinamide]	neither nicotinamide, a sirtuin deacetylase inhibitor, nor sodium butyrate, a class I HDAC inhibitor, altered the acetylation status	
CCCC(=O)[O-].[Na+] [sodium butyrate]	neither nicotinamide, a sirtuin deacetylase inhibitor, nor sodium butyrate, a class I HDAC inhibitor, altered the acetylation status	
sodium arsenite		DDX3X-K118 acetylation after arsenite treatment [3]: increased
